For 9 substances, IC50 results are on record in publication PMC2364987 (Metal-Based Drugs, 1995).

The target in one experiment is T1, Bovine CA II (Bos taurus, UniProt P00921).
T1 construct: purchased Sigma Chemical Co
The experiment can be described thus: CA II inhibition, CO2 hydration, Maren's micromethod (E-I technique). The format is biochemical. The settings on record: 0C, veronal buffer, calculated as for the monomer for complexes. From the text:
(§1) Introduction Sulfonamide inhibitors of the zinc enzyme carbonic anhydrase (CA, EC 4.2.1.1) are widely used pharmacological agents in the treatment of a variety of disorders. […] 3,11 As we are also interested in exploring the coordination chemistry of sulfonamide CA inhibitors, in addition to their pharmacological applications, 1,4,11 a study is reported here on the preparation and characterization of metal complexes containing 4 and divalent metal ions such as Co(II), Ni(II), Cu(II), Zn(II), and Cd(II). In fact 4 is the first disulfonamide for which such a study was done. Here we report the data on these new derivatives, as well as their inhibition properties against two isozymes, CA I and CA II. Mention should be made that CA I inhibition data for the parent ligand, 1,3,4-thiadiazole-2,5- disulfonamide are published here for the first time. Materials and Methods Melting points were recorded on a heating plate microscope and are not corrected. FTIR spectra were obtained on thin films of pure compound, with a Perkin Elmer 1600 instrument, in the range 200 4000 cm"1. Electronic spectra were obtained by the diffuse reflectance technique in MgO as reference, with a Perkin Elmer Lambda 17 apparatus. Conductimetric measurements were done in DMF solutions, at 25C (concentrations of 1 mM of complex) with a Fisher conductimeter. 1n- and 13C-NMR data were obtained in DMSO-d as solvent with a Varian Gemmini 300 spectrometer. Chemical shifts are expressed as values relative to tetramethylsilane as internal standard. […] Thermogravimetric measurements were done in air, at a heating rate of 10C/min., with a Perkin Elmer 3600 thermobalance. Sulfonamide 4 used in the syntheses was prepared as described earlier by us.11 Metal salts, organic reagents used for preparing the ligand 4 and solvents were from Aldrich and were used without additional purification. Bovine CA II and human CA I was from Sigma Chemical Co. Inhibitors were assayed by […] micromethod 12, in the conditions of the E-I (enzyme-inhibitor) technique, at 0C in veronal buffer. IC0 values represent the molarity of inhibitor producing a 50% decrease of CA specific activity for the CO2 hydration reaction. […] The precipitated complexes were filtered and air dried. […] According to our method 6a the coordination compounds of sulfonamides were prepared starting from the sodium salt of the ligand, in aqueous milieu, whereas according to Borras' group they were obtained in the presence of ammonia (or other amines, such as pyridine, ethylenediamine, imidazole, etc), in alcohol as solvent.14 In such cases, the amines are also coordinated to the metal ions, in addition to the sulfonamide ligands. In the present study, we prepared and characterized both types ofderivatives, working with the sodium salt of4, but also with the ligand in the presence of ammonia, in both cases in a 1:1 molar ratio ligand:metal salt. […] Table I: Complexes 5-14 prepared and their elemental analysis data (S stands for the doubly deprotonated species of sulfonamide 4). […] Table II: Spectroscopic, magnetic and conductimetric data for complexes 5-10 as compared to ligands 4. Comp. IR.

A further experiment has as its target T2, human CA I (Homo sapiens, UniProt P00915).
T2 construct: purchased Sigma Chemical Co
The experiment can be described thus: CA I inhibition, CO2 hydration, Maren's micromethod (E-I technique). The format is biochemical. As to conditions: 0C, veronal buffer, calculated as for the monomer for complexes.
Text: as §1

T1 sequence (P00921 whole entry): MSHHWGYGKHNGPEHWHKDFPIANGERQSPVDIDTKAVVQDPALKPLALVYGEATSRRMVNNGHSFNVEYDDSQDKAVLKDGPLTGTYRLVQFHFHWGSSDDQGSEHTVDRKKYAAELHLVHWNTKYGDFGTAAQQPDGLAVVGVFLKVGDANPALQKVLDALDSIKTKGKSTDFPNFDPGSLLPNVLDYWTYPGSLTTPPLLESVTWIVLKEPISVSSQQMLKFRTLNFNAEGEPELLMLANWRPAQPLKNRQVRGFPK
T2 sequence (P00915 whole entry): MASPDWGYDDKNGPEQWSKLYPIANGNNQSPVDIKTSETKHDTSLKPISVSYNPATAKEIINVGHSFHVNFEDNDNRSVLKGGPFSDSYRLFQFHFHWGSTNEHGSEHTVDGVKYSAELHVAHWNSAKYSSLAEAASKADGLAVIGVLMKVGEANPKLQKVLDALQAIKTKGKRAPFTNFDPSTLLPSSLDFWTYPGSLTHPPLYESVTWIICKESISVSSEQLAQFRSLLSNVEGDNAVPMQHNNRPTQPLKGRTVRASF

For the substance [CdS(NH3)2]o [Compound 14], the half-maximal inhibitory concentration (IC50) on Bovine CA II is 19 nM; on human CA I it was 185 nM.
The like results for [CdS(OH2)2] [Compound 9] were, in that order, 17 nM and 180 nM.
In the same order, the values of [CoS(NH3)2]n [Compound 10] are 42 nM and 360 nM.
On to [CuS(NH3)2] [Compound 12], for which the IC50 is 27 nM at Bovine CA II and 185 nM on human CA I.
The like results for [CuS(OH2)2]n [Compound 7] were, in that order, 24 nM and 175 nM.
The like results for [NiS(NH3)2], [Compound 11] were, in that order, 41 nM and 440 nM.
The like results for [NiS(OH2)2]n [Compound 6] were, in that order, 45 nM and 390 nM.
For [ZnS(NH3)2] [Compound 13], the figures for the concentration for half-maximal inhibition (IC50) at Bovine CA II and at human CA I were 22 nM and 205 nM, respectively.
In the same order, the values of [ZnS] [Compound 8] are 28 nM and 210 nM.

As usually defined, the IC50 is the midpoint of a concentration-inhibition curve.
